Experimental data: patent US20230339835A1, “2,3,5-TRIMETHYL-6-NONYLCYCLOHEXA-2,5-DIENE-1,4-DIONE FOR SUPPRESSING AND TREATING ALPHA-SYNUCLEINOPATHIES, TAUOPATHIES, AND OTHER DISORDERS” (PTC THERAPEUTICS, INC., priority 2018, published 2023)
Values after ≈ are worked out from the molar mass of the structure shown. Marks after values point to notes of the source that are not given here.

Columns and labels:
Type in all cases: physicochemical
[1] = Solubility in simulated fluids and water
Description: Solubility of Pattern A and melted solid was assessed in Fasted-State Simulated Gastric Fluid (FaSSGF), Fed-State Simulated Intestinal Fluid (FeSSIF), and Fasted-State Simulated Intestinal Fluid (FaSSIF), water, and 0.5% methyl cellulose+2% Tween80 in water. Five foil-covered 4 mL vials were prepared with 11-13 mg of as-received material (ID-1-1), 10 mm stir bars were included. Five foil-covered 4 mL vials containing between 11-13 mg of C9 were melted on a hot plate at 70° C. for 10 min and cooled to room temperature for 5 min, 10 mm stir bars were included.
Slurries were prepared with the as-received material ID-1-1 (Pattern A) and melted C9, each in 2.5 mL of simulated fluids (including 0.5% methyl cellulose+2% Tween80 in water), or water. The samples containing melted active pharmaceutical ingredient (API) were sonicated briefly, as they appeared to contain clumps of material. […] For solubility analysis 1 mL of each sample was pipetted into a syringe filter, the first 0.5 mL was filtered back into the source vial and the remaining 0.5 mL was filtered into HPLC vials with low volume inserts.
The response factor calculated with the calibration points was used to determine the concentrations of API in the simulated fluids and water. Calibration samples were prepared with as-received material (ID-1-1) in ACN. The concentrations and peak areas for each calibration point were plotted and a response factor calculated for solubility assessment.
Due to high pressures observed with the UPLC column, a different column and a modified method was employed for 24 h data points with 0.5% methyl cellulose+2% Tween80 in water, and 24 h in water (ID-30-4, ID-30-9 and ID-30-10). HPLC samples of ID-30-4 and 30-9 (those containing the methyl cellulose/Tween80 mixture) were diluted 10× with ACN. These samples plus a new set of injections of the calibration points were analyzed, a new response factor was determined, and the solubility of the remaining samples was calculated (response factor: 8084.7908; R2: 0.9989).

[2] = Humidification cycling by dynamic vapor sorption (DVS)
Description: As-received material (ID 1-1) was subjected to humidification cycling by dynamic vapor sorption (DVS) instrument. The material underwent a 0.01% change in mass in the 15-75% relative humidity range, and a 0.08% change in mass over the full range of 2-95% relative humidity. Following humidification cycling, the solid was analyzed by XRPD.

[3] = Solid form stability, one week at 75% RH and 40° C.; conditions: 7 days, 75% relative humidity
Description: The solid form stability of the material was assessed over one week. 49.0 mg of ID-1-1 was placed inside of a foil-covered 4 mL vial, which was covered with a KimWipe. This vial was placed inside a 20 mL vial containing saturated aqueous sodium chloride. The vial was placed on a hot plate at 40° C. for 7 days, creating an atmosphere of 75% relative humidity in the system. After 7 days, the solid was sampled for HPLC (ID-4-1).
A sample of the stressed material was plated and analyzed by XRPD; the observed pattern was Pattern A. The XRPD data is shown in FIG. 16. Microscopy images of ID-4-1 were captured at 100× and 400× magnification. The images are shown in FIG. 17A (100×) and FIG. 17B (400×).

## CCCCCCCCCC1=C(C)C(=O)C(C)=C(C)C1=O [Pattern A, 2,3,5-trimethyl-6-nonylcyclohexa-2,5-diene-1,4-dione]
[1]; 0.5% MC + 2% Tween80 (aq), Phenomenex Luna Phenyl Hexyl HPLC column and modified method
  Solubility at 24 hours: 310 µg/mL
[1]; 0.5% MC + 2% Tween80 (aq), Phenomenex Luna Phenyl Hexyl HPLC column and modified method, listed as A
  Solubility at 24 hours (mg/mL): 0.31# mg/mL
[1]; 0.5% MC + 2% Tween80 (aq.)
  Conc. (mg/mL) at 30 min: 0.53 mg/mL
[1]; FaSSGF
  Conc. (mg/mL) at 30 min: BDL
  Solubility at 24 hours (mg/mL): BDL
[1]; FaSSIF
  Conc. (mg/mL) at 30 min: 0.01 mg/mL
  Solubility at 24 hours (mg/mL): BDL
[1]; FeSSIF
  Conc. (mg/mL) at 30 min: 0.29 mg/mL
  Solubility at 24 hours: 200 µg/mL (≈ 724 µM)
[1]; water
  Conc. (mg/mL) at 30 min: BDL
  Solubility at 24 hours (mg/mL): BDL
[2]; 2-95% RH
  DVS Change Mass (wt. %): 0.08 wt. %
[2]; 15-75% RH
  DVS Change Mass (wt. %): 0.01 wt. %
[2]; 15-75% relative humidity range
  change in mass (DVS): 0.01%
[2]; DVS humidification cycling
  hygroscopicity: not hygroscopic
[2]; full range of 2-95% relative humidity
  change in mass (DVS): 0.08%
[3]
  XRPD pattern of stressed material: Pattern A
  impurities by HPLC in stability sample: did not show any impurities
